This passage reports EC50 results from patent US8754220B2, “Quinolizidinone carboxamide M1 receptor positive allosteric modulators” (Merck Sharp & Dohme Corp., priority 2009, dated 2014).

SMILES strings stand for the structures.

The target of one experiment is T1, acetylcholine muscarinic M1 receptor (CHOnfat/hM1 cells) (Homo sapiens, UniProt P11229).
T1 construct: expressed in transfected cells; host or cells: CHOnfat (CHO cells; selected with Geneticin)
T1 sequence (P11229 1-460): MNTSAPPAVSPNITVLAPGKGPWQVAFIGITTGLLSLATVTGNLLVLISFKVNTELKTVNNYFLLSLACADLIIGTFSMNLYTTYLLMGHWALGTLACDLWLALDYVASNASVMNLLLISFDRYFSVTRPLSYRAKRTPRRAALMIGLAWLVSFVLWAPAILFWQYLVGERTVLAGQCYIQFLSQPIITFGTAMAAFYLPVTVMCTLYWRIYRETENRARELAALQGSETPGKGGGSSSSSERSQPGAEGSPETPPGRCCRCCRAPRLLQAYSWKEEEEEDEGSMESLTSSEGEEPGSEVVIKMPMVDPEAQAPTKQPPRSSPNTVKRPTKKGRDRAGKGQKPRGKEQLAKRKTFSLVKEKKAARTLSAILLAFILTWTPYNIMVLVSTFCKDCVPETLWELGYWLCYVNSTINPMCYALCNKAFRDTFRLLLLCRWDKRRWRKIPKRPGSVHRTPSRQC
The experiment can be described thus: FLIPR intracellular calcium assay for M1 positive allosteric modulator activity (acetylcholine EC20). In kind it is cell-based.
Settings: not given
The protocol:
The assay studies the effect of one or several concentrations of test compounds on basal or acetylcholine-stimulated Ca^2+ levels using FLIPR.
Compounds are prepared and subjected to a preincubation period of 4 min. Thereafter, a single EC20 concentration of acetylcholine is added to each well (3 nM final). The intracellular Ca^2+ level of each sample is measured and compared to an acetylcholine control to determine any modulatory activity.
Cells: CHOnfat/hM1, hM2, hM3 or hM4 cells are plated 24 hr before the assay at a density of 18,000 cells/well (100 μL) in a 384 well plate. CHOnfat/hM1 and CHOnfat/hM3 Growth Medium: 90% DMEM (Hi Glucose); 10% HI FBS; 2 mM L-glutamine; 0.1 mM NEAA; Pen-Strep; and 1 mg/ml Geneticin, are added. For M2Gqi5CHOnfat and M4Gqi5CHOnfat cells, an additional 600 μg/ml hygromycin is added.
Equipment: 384 well plate, 120 μL addition plate; 96-well Whatman 2 ml Uniplate Incubator, 37° C., 5% CO2; Skatron EMBLA-384 Plate Washer; Multimek Pipetting System; Genesis Freedom 200 System; Mosquito System; Temo Nanoliter Pipetting System; and FLIPR^384 Fluorometric Imaging Plate Reader System are used.
Buffers. Assay Buffer: Hanks Balanced Salt Solution, with 20 mM Hepes, 2.5 mM Probenecid (Sigma P-8761) first dissolved in 1 N NaOH, 1% Bovine Serum Albumin (Sigma A-9647). Dye Loading Buffer: Assay Buffer plus 1% Fetal Bovine Serum and Fluo-4AM/Pluronic Acid Mixture. 2 mM Fluo-4AM ester stock in DMSO (Molecular Probes F-14202) Concentration of 2 μM in buffer for a final concentration of 1 μM in Assay. 20% Pluronic Acid Solution stock, with concentration of 0.04% in Buffer, 0.02% in Assay.
65 μL of 2 mM Fluo-4AM are mixed with 130 μL of 20% Pluronic Acid. The resulting solution and 650 μL FBS is added to the assay buffer for a total volume of 65 mL. Positive Controls: 4-Br-A23187: 10 mM in DMSO; final concentration 10 μM. Acetylcholine: 10 mM in water, working stock at both 20 μM and 30 μM in assay buffer, final concentration of 10 μM. This is used to check the maximum stimulation of the CHOK1/hM1 cells. 20 μM (2×) acetylcholine is added in the preincubation part of the assay, and the 30 μM (3×) stock is added in the second part. (EC20) Acetylcholine: 10 mM in water, working stock of 9 nM (3×), and final concentration in assay is 3 nM. This is used after the preincubation with test compounds. Addition of the EC20 Acetylcholine to each well with a test compound will ascertain any modulator activity. 24 wells contain 3 nM Acetylcholine alone as a control.
Screening Plate: Compounds are titrated in 96-well plates (columns 2-11), 100% DMSO, started at a concentration of 15 mM (150× stock concentration), and 3-fold serial dilutions using Genesis Freedom200 System. Four 96-well plates are combined into a 384-well plate using Mosquito Nanoliter Pipetting System by transferring 1 μl of serial diluted compounds to each well, and 1 mM acetylcholine (100× stock concentration) were added as a control. Using Temo, 49 μl assay buffer is added to each well of the 384-well plate right before assay.
In a 96-well Whatman 2 ml Uniplate, 9 nM Acetylcholine (3×) is pipetted into wells corresponding to the screening compounds, and into control wells. The 30 μM acetylcholine control (3×) is added into control wells, and the 3× agonist plate is transferred into a 384 well plate.
Cells are washed three times with 100 μL of buffer, leaving 30 μL of buffer in each well. Using Multimek, 30 μL of Dye Loading Buffer is added into each well and incubated at 37° C., 5% CO2 for up to one hr.
After 60 min, the cells are washed three times with 100 μL of buffer, leaving 30 μL of buffer in each well. The cell plate, screening plate, and agonist addition plates are placed on the platform in the FLIPR and the door closed. A signal test to check background fluorescence and basal fluorescence signal is performed. Laser intensity is adjusted if necessary. […]
On the technique in general: Calcium flux is commonly read through the fluorescence of an indicator in the cells.
Regarding `N#CC1(c2ccccn2)CCN(Cc2cc(C(=O)N[C@H]3CCOC[C@@H]3O)c(=O)n3ccccc23)CC1` (racemic) [Example 7, rac-1-[(4-Cyano-4-pyridin-2-ylpiperidin-1yl)methyl]-N-[(3R,4S)-3-hydroxytetrahydro-2H-pyran-4-yl]-4-oxo-4H-quinolizine-3-carboxamide], the EC50 came to 25 nM.

With `N#CC1(c2cc(C(F)F)ccn2)CCN(Cc2cc(C(=O)N[C@H]3CCCC[C@@H]3O)c(=O)n3ccccc23)CC1` [Example 24, 1-({4-Cyano-4-[4-(difluoromethyl)pyridin-2-yl]piperidin-1-yl}methyl)-N-[(1S,2S)-2-hydroxycyclohexyl]-4-oxo-4H-quinolizine-3-carboxamide], the EC50 worked out at 25 nM.

As to `N#CC1(c2ccccc2Br)CCN(Cc2cc(C(=O)N[C@H]3CCCC[C@@H]3O)c(=O)n3ccccc23)CC1` [Example 12], the EC50 turned out to be 24 nM.

Regarding `N#CC1(c2ccccc2)CCN(Cc2cc(C(=O)N[C@H]3COCC[C@@H]3O)c(=O)n3ccccc23)CC1` [Example 11, 1-[(4-Cyano-4-phenylpiperidin-1-yl)methyl]-N-[(3S,4S)-4-hydroxytetrahydro-2H-pyran-3-yl]-4-oxo-4H-quinolizine-3-carboxamide], the EC50 stood at 560 nM.

The experiment is the same for the next values; noted with them: CHOnfat/hM1 cells, 4 min preincubation, then EC20 acetylcholine (3 nM final), FLIPR Ca2+; read-out: IP Value (inflection point).
Consider `N#CC1(c2ccccn2)CCN(Cc2cc(C(=O)NC3CCCNC3)c(=O)n3ccccc23)CC1` (stereo not shown) [Example 19, 1-[(4-Cyano-4-pyridin-2-ylpiperidin-1-yl)methyl]-4-oxo-N-piperidin-3-yl-4H-quinolizine-3-carboxamide], for which the EC50 came out at 1800 nM.

In the case of `O=C(N[C@H]1CCCC[C@@H]1O)c1cc(CN2CCN(c3ccc(C(F)F)nc3)CC2)c2ccccn2c1=O` [Example 5, 1-({4-[6-(Difluoromethyl)pyridine-3-yl]piperazin-1-yl}methyl)-N-[(1S,2S)-2-hydroxycyclohexyl]-4-oxo-4H-quinolizine-3-carboxamide], the EC50 is 210 nM.

`C[C@H]1COCC[C@@H]1NC(=O)c1cc(CN2CCC(C#N)(c3ccccn3)CC2)c2ccccn2c1=O` (racemic) [Example 21, rac-1-[(4-Cyano-4-pyridin-2-ylpiperidin-1-yl)methyl]-N-[(3R,4S)-3-methyltetrahydro-2H-pyran-4-yl]-4-oxo-4H-quinolizine-3-carboxamide]: the EC50 amounted to 380 nM.
